# Test results as given in patent publication US20130059773A1, “COMPOUNDS FOR THE TREATMENT OF INFLAMMATION AND NEUTROPENIA” (priority 2010, published 2013).
# Key:
# neutrophils [1] = experiment: Neutrophil apoptosis/survival by phosphatidylserine externalization after annexin-V and 7-AAD labeling; type: cell-based, human; details: 15 h at 37° C.; anti-Fas mAb 10 ng/ml, gliotoxin 2 mg/ml
# Protocol: Analysis of apoptosis. Neutrophil apoptosis was triggered by incubating neutrophils at 37° C. alone (constitutive apoptosis) or with anti-Fas mAb (10 ng/ml; Beckman-Coulter) or gliotoxin ([…]; Sigma) (Ward et al. 1999, J. Biol. Chem. 274:4309-4318) for the indicated times. Neutrophil apoptosis was evaluated by phosphatidylserine externalization after annexin-V and 7-AAD labeling (Kantari et al. 2007, Blood 110:4086-4095); mitochondrial depolarization after DiOC6 labeling (Moriceau et al. 2009, J. Immuno1.182:7254-7263); caspase-3 and caspase-8 activities measured by spectrophotometry (Biovision) in neutrophil lysates. In DMF-differentiated-PLB985 cells, apoptosis was triggered by gliotoxin or by rTRAIL (10 ng/ml; RD System) (Yin et al. 2005, Int. J. Biochem. Cell Biol. 37:1696-1708) and caspase-8 and caspase-9 activities were determined after gating on CD11b^+ cells using the Caspase-Glow® assay (Promega). Apoptosis-induced chromatin condensation and DNA fragmentation were assessed, respectively, after DNA staining with the blue fluorescent dye Hoechst (5 mg/ml) and propidium-iodide staining (Goepel et al. 2004, J. Leukoc. Biol. 75:836-843). Carboxyp21 ([…], SEQ ID NO: 24) corresponding to the p21 carboxy-terminus sequence (residues 141-160) and containing a RYIRS carboxy-terminal extension to facilitate its cell entry was synthesized and purified (Genecust). A modified peptide in which the charged amino acids responsible for its binding to PCNA have been changed according to dynamic simulation studies ([…], SEQ ID NO: 25) served as control. The effect of PS-341 (LC Laboratories) and MG132 were tested on neutrophil apoptosis and PCNA expression as indicated.
# BM neutrophils = experiment: Apoptosis of BM-isolated mouse neutrophils by annexin-V labelling; type: cell-based; details: increasing gliotoxin concentrations
# Protocol: In vivo model of LPS-induced airway inflammation. Peripheral blood neutrophils and BM mature neutrophils from femurs were isolated using Percoll density gradient, as described in Mocsai et al. (2002, Immunity 16:547-558). Intranasal LPS administration in mice and collection of cells from BALF was performed as described in Chignard et al. (2000, Am. J. Physiol. Lung Cell Mol. Physiol. 279:L1083-1090). Mice were treated in accordance with Inserm guidelines in compliance with European animal-welfare regulations. Seven-week-old male C57B1/6 mice, weighing 25-30 g (Charles Rivers), were anesthetized by intra-muscular injection of a mixture of ketamine and xylasine, and then 330 μg/kg of LPS dissolved in 50 μl of saline were deposited intranasally. At different times, animals were killed by an intraperitoneal injection of a lethal dose of sodium pentobarbital (Sanofi) to isolate lung neutrophils. The trachea of each mouse was then cannulated and BAL performed with a syringe and multiple cycles of saline instillation (0.5 ml) and aspiration to obtain a BALF volume of 4 ml. The latter was centrifuged, pelleted cells were collected and differential cell counts made after cytospin centrifugation and staining with Diff-Quik products. BAL neutrophils were isolated by Ficoll density gradient centrifugation. […]
# neutrophils [2] = details: report; cited from earlier work
# [3] = report; cited from earlier work
SMILES,Increase of annexin-V+ 7-AAD− cells (neutrophils [1]),Apoptosis of BM neutrophils by annexin-V labelling (BM neutrophils),Neutrophil apoptosis (neutrophils [2]),Inflammation resolution in vivo [3]
"CN1C(=O)[C@]23CC4=CC=C[C@H](O)[C@H]4N2C(=O)[C@@]1(CO)SS3 [gliotoxin, reference compound]",further enhanced,trigger apoptosis in BM neutrophils in a dose-dependent manner,–,–
CC[C@H](CO)Nc1nc(NCc2ccccc2)c2ncn(C(C)C)c2n1 [roscovitine],–,–,triggers neutrophil apoptosis,promotes inflammation resolution in vivo
